Structures can show the parent of a compound that is named as a salt.

In this experiment the target is T1, human TRPV4 (Homo sapiens, UniProt Q9HBA0).
T1 construct: expressed in transfected cells
T1 sequence (Q9HBA0 whole entry): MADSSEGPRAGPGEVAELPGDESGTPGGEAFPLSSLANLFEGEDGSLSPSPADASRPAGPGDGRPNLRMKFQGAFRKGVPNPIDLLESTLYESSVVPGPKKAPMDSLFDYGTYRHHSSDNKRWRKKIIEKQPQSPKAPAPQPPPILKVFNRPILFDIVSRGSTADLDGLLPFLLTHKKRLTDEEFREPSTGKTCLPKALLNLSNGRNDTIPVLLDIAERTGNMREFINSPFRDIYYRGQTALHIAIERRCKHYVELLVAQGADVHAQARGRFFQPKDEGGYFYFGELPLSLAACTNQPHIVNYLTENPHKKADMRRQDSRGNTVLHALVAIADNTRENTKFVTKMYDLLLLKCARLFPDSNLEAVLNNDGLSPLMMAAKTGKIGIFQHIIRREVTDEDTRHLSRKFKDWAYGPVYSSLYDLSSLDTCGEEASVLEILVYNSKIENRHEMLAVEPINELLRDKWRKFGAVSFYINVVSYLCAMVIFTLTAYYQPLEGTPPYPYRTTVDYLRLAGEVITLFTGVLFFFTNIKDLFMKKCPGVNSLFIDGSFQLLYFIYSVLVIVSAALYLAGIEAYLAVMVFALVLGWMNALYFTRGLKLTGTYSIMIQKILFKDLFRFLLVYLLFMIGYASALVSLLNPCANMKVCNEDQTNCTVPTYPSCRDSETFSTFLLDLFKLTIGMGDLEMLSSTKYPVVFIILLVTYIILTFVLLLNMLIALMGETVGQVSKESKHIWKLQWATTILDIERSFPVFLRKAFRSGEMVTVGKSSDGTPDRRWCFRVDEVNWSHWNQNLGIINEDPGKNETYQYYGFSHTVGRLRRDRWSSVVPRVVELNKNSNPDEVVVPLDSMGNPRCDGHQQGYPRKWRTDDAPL
Put plainly: Fluorometric cell-based Ca2+ flux assay, HEK-293 cells stably overexpressing human TRPV4. The note with it: HEK-293 stably overexpressing human TRPV4; agonist GSK1016790A 30 nM. Summed up: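 HEK-293 cells stably overexpressing human TRPV4, Fluo 4-loaded, pre-incubated 30 min at 37° C with compound, then stimulated with 30 nM GSK1016790A (final). Max ΔF/s over 1 min, media-corrected, expressed relative to no-antagonist control; IC50 from ≥8 concentrations, ≥3 replicates.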
Usually IC50 stands for the point on the concentration scale where inhibition reaches its midpoint. `CCOc1cc(OCC2(CO)CN(S(=O)(=O)c3ccc(Cl)cc3Cl)C2)ccc1C#N` [Compound 100, 4-((1-((2,4-Dichlorophenyl)sulfonyl)-3-(hydroxymethyl)azetidin-3-yl)methoxy)-2-ethoxybenzonitrile]: the IC50 is > 1000 nM.

Regarding `N#Cc1ccc(OCC2(CN[C@H]3C[C@H](O)C3)CN(S(=O)(=O)c3ccccc3C#N)C2)cc1F` [Compound 113, 4-((1-((2-Cyanophenyl)sulfonyl)-3-(((trans-3-hydroxycyclobutyl)amino)methyl)azetidin-3-yl)methoxy)-2-fluorobenzonitrile], the concentration for half-maximal inhibition (IC50) stood at 0.79 nM.

For the compound `N#Cc1ccc(OCC2(CO)CN(S(=O)(=O)c3ccc(Cl)cc3Cl)C2)cc1` [Compound 3, 4-((1-((2,4-Dichlorophenyl)sulfonyl)-3-(hydroxymethyl)azetidin-3-yl)methoxy)benzonitrile], the IC50 was found to be 270 nM.

Compound `N#Cc1ccc(OCC2(CNC[C@H]3CCCO3)CN(S(=O)(=O)c3ccc(Cl)cc3Cl)C2)cc1F` [Compound 40, (R)-4-((1-((2,4-dichlorophenyl)sulfonyl)-3-((((tetrahydrofuran-2-yl)methyl)amino)methyl)azetidin-3-yl)methoxy)-2-fluorobenzonitrile hydrochloride] displayed a concentration for half-maximal inhibition (IC50) of 13.4 nM.

`Cc1nn(C)cc1S(=O)(=O)N1CC(CO)(COc2ccc(C#N)c(F)c2)C1` [Compound 66, 4-((1-((1,3-Dimethyl-1H-pyrazol-4-yl)sulfonyl)-3-(hydroxymethyl)azetidin-3-yl)methoxy)-2-fluorobenzonitrile] registered a concentration for half-maximal inhibition (IC50) of 10000 nM.

On to `N#Cc1ccc(OCC2(CN)CN(S(=O)(=O)c3ccc(Cl)cc3Cl)C2)cc1F` [Compound 44, 4-((3-(Aminomethyl)-1-((2,4-dichlorophenyl)sulfonyl)azetidin-3-yl)methoxy)-2-fluorobenzonitrile], for which the half-inhibitory concentration (IC50) was 8.7 nM.

Consider `Cc1cc(F)ccc1S(=O)(=O)N1CC(CO)(COc2ccc(C#N)c(F)c2)C1` [Compound 77, 2-Fluoro-4-((1-((4-fluoro-2-methylphenyl)sulfonyl)-3-(hydroxymethyl)azetidin-3-yl)methoxy)benzonitrile], for which the IC50 was > 2500 nM.

For `N#Cc1ccc(OCC2(CN[C@H]3CC[C@H](O)CC3)CN(S(=O)(=O)c3ccccc3C#N)C2)cc1F` [Compound 112, 4-((1-((2-Cyanophenyl)sulfonyl)-3-(((trans-4-hydroxycyclohexyl)amino)methyl)azetidin-3-yl)methoxy)-2-fluorobenzonitrile], the concentration for half-maximal inhibition (IC50) amounted to 0.29 nM.

For `O=S(=O)(c1ccc(Cl)cc1Cl)N1CC(CO)(COc2cccnc2)C1` [Compound 97, (1-((2,4-Dichlorophenyl)sulfonyl)-3-((pyridin-3-yloxy)methyl)azetidin-3-yl)methanol], the IC50 was ~5000 nM.

The compound `CC(CO)NCC1(COc2ccc(C#N)c(F)c2)CN(S(=O)(=O)c2ccc(Cl)cc2Cl)C1` (stereo not drawn) [Compound 32, 4-((1-((2,4-Dichlorophenyl)sulfonyl)-3-(((1-hydroxypropan-2-yl)amino)methyl)azetidin-3-yl)methoxy)-2-fluorobenzonitrile hydrochloride] showed a concentration for half-maximal inhibition (IC50) of 0.3 nM.

In the case of `Cc1ccccc1S(=O)(=O)N1CC(CO)(COc2ccc(C#N)c(F)c2)C1` [Compound 76, 2-Fluoro-4-((3-(hydroxymethyl)-1-(o-tolylsulfonyl)azetidin-3-yl)methoxy)benzonitrile], the half-maximal inhibitory concentration (IC50) is > 2500 nM.

`N#Cc1ccc(OCC2(CNC(=O)CN)CN(S(=O)(=O)c3ccc(Cl)cc3Cl)C2)cc1F` [Compound 46, 2-Amino-N-((3-((4-cyano-3-fluorophenoxy)methyl)-1-((2,4-dichlorophenyl)sulfonyl)azetidin-3-yl)methyl)acetamide] gave an IC50 of 52 nM.

The compound `N#Cc1ccc(OCC2(CO)CN(S(=O)(=O)c3ccc(OC(F)(F)F)cc3Br)C2)cc1F` [Compound 105, 4-((1-((2-Bromo-4-(trifluoromethoxy)phenyl)sulfonyl)-3-(hydroxymethyl)azetidin-3-yl)methoxy)-2-fluorobenzonitrile] showed a half-maximal inhibitory concentration (IC50) of 1200 nM.

Consider `N#Cc1ccc(OCC2(C(=O)NC3CCOCC3)CN(S(=O)(=O)c3ccc(Cl)cc3Cl)C2)cc1` [Compound 6, 3-((4-cyanophenoxy)methyl)-1-((2,4-dichlorophenyl)sulfonyl)-N-(tetrahydro-2H-pyran-4-yl)azetidine-3-carboxamide], for which the IC50 was determined as 12900 nM.

The compound `N#Cc1ccc(OCC2(CNC3COC3)CN(S(=O)(=O)c3ccc(Cl)cc3Cl)C2)cc1F` [Compound 26, 4-((1-((2,4-Dichlorophenyl)sulfonyl)-3-((oxetan-3-ylamino)methyl)azetidin-3-yl)methoxy)-2-fluorobenzonitrile] gave an IC50 of 8 nM.

`N#Cc1ccc(OCC2(C(N)=O)CN(S(=O)(=O)c3ccc(Cl)cc3Cl)C2)cc1F` [Compound 9, 3-((4-Cyano-3-fluorophenoxy)methyl)-1-((2,4-dichlorophenyl)sulfonyl)azetidine-3-carboxamide] returned an IC50 of 1090 nM.

The compound `N#Cc1ccc(OCC2(CN3CCOCC3)CN(S(=O)(=O)c3ccc(Cl)cc3Cl)C2)cc1F` [Compound 50, 4-((1-((2,4-Dichlorophenyl)sulfonyl)-3-(morpholinomethyl)azetidin-3-yl)methoxy)-2-fluorobenzonitrile hydrochloride] yielded a half-inhibitory concentration (IC50) of 794 nM.

As to `CNCCN(C)C(=O)C1(COc2ccc(C#N)cc2)CN(S(=O)(=O)c2ccc(Cl)cc2Cl)C1` [Compound 5, 3-((4-Cyanophenoxy)methyl)-1-((2,4-dichlorophenyl)sulfonyl)-N-methyl-N-(2-(methylamino)ethyl)azetidine-3-carboxamide], the IC50 stood at 2250 nM.

`N#Cc1ccc(OCC2(NC(=O)CN)CN(S(=O)(=O)c3ccc(Cl)cc3Cl)C2)cc1F` [Compound 55, 2-Amino-N-(3-((4-cyano-3-fluorophenoxy)methyl)-1-((2,4-dichlorophenyl)sulfonyl)azetidin-3-yl)acetamide] came in with a half-inhibitory concentration (IC50) of 23 nM.

Turning to `N#Cc1ccc(OCC2(COP(=O)(O)O)CN(S(=O)(=O)c3ccc(Cl)cc3Cl)C2)cc1F` [Compound 14, Sodium (3-((4-cyano-3-fluorophenoxy)methyl)-1-((2,4-dichlorophenyl)sulfonyl)azetidin-3-yl)methyl phosphate], the 50% inhibitory concentration (IC50) was 70 nM.

On to `CC(=O)OCC1(COc2ccc(C#N)c(F)c2)CN(S(=O)(=O)c2ccc(Cl)cc2Cl)C1` [Compound 12, (3-((4-Cyano-3-fluorophenoxy)methyl)-1-((2,4-dichlorophenyl)sulfonyl)azetidin-3-yl)methyl acetate], for which the 50% inhibitory concentration (IC50) amounted to 303 nM.

With `N#Cc1ccc(OCC2(CO)CN(S(=O)(=O)c3ccccc3C#N)C2)cc1F` [Compound 85, 4-((1-((2-Cyanophenyl)sulfonyl)-3-(hydroxymethyl)azetidin-3-yl)methoxy)-2-fluorobenzonitrile], the IC50 is 4.9 nM.

On to `N#Cc1ccc(OCC2(CO)CN(S(=O)(=O)c3ccc(Cl)cc3)C2)cc1F` [Compound 84, 4-((1-((4-Chlorophenyl)sulfonyl)-3-(hydroxymethyl)azetidin-3-yl)methoxy)-2-fluorobenzonitrile], for which the IC50 is > 302 nM.

Take `CCOC(=O)CCNCC1(COc2ccc(C#N)c(F)c2)CN(S(=O)(=O)c2ccc(Cl)cc2Cl)C1` [Compound 37, Ethyl 3-(((3-((4-Cyano-3-fluorophenoxy)methyl)-1-((2,4-dichlorophenyl)sulfonyl)azetidin-3-yl)methyl)amino)propanoate hydrochloride]: the IC50 was 3.3 nM.

Source of the values: patent publication US20230026696A1, “TRPV4 RECEPTOR LIGANDS” (UNIVERSITY OF UTAH RESEARCH FOUNDATION, priority 2019, published 2023).
